Test results published in ChEMBL document CHEMBL5291721, “A preclinical secondary pharmacology resource illuminates target-adverse drug reaction associations of marketed drugs” (Nat Commun, 2023).

What was measured:
[1] = molecular target: T1, Endothelin-1 receptor (Homo sapiens, UniProt P25101)
T1 sequence (P25101 whole entry): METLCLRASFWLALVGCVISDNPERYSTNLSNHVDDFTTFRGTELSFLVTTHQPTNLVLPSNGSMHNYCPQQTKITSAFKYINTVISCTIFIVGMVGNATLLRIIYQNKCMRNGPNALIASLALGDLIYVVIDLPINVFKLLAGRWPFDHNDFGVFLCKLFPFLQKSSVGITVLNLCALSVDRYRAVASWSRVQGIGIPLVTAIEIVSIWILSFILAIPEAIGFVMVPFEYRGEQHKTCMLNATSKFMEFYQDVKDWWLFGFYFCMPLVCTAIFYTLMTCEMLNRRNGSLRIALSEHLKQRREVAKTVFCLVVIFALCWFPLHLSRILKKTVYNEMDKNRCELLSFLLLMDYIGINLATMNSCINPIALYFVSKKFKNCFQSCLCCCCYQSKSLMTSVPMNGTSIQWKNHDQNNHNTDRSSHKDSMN

[2] = molecular target: cGMP-inhibited 3',5'-cyclic phosphodiesterase 3A (Homo sapiens, UniProt Q14432); type: functional
[3] = molecular target: Voltage-gated inwardly rectifying potassium channel KCNH2 (Homo sapiens, UniProt Q12809); type: functional; details: read-out: AC50
Sequence of Voltage-gated inwardly rectifying potassium channel KCNH2 (Q12809 whole entry): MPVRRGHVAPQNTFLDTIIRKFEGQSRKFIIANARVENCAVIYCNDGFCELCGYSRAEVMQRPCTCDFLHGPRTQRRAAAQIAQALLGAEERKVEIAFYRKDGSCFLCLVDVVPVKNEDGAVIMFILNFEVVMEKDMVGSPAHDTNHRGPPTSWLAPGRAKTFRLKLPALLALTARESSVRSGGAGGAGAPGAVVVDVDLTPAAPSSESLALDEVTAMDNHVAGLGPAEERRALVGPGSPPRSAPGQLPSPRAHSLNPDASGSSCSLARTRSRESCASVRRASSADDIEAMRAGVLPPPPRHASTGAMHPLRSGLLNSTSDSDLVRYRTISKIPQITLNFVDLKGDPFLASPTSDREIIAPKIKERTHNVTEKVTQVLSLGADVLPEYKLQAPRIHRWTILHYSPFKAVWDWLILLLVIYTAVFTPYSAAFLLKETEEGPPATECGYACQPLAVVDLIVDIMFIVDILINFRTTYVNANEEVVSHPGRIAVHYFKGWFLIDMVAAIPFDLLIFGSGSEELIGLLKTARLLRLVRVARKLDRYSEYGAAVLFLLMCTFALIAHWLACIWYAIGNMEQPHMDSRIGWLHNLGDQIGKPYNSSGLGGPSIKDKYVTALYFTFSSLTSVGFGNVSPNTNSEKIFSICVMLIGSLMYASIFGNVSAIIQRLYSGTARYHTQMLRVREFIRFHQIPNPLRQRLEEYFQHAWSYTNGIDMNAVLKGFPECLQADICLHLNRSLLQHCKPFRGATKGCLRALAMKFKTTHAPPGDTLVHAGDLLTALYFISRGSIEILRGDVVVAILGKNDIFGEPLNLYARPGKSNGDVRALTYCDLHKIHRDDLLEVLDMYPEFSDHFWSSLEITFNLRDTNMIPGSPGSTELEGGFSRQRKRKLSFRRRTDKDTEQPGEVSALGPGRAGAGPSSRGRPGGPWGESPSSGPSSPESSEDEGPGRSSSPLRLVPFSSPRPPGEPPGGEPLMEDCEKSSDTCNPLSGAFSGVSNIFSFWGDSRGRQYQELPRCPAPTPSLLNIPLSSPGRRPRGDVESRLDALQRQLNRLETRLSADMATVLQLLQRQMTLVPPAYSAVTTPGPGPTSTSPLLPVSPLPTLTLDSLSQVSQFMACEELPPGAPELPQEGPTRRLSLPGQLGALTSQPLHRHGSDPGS

[4] = molecular target: T2, Muscarinic acetylcholine receptor M2 (Homo sapiens, UniProt P08172); type: functional, cell-based
T2 sequence (P08172 whole entry): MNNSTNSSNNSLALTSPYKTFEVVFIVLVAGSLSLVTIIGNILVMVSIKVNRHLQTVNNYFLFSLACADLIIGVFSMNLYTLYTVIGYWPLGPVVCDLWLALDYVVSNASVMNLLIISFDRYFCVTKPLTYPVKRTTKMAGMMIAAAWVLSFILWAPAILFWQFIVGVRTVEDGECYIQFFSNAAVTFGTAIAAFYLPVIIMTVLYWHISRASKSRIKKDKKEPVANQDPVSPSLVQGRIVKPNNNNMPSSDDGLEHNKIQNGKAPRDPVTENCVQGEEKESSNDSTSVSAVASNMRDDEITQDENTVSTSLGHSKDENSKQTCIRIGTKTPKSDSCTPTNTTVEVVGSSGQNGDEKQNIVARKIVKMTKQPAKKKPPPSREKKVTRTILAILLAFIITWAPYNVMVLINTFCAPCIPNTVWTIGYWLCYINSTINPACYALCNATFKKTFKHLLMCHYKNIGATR

[5] = molecular target: D(3) dopamine receptor (Homo sapiens, UniProt P35462)
[6] = molecular target: Beta-1 adrenergic receptor (Homo sapiens, UniProt P08588); type: functional
Sequence of Beta-1 adrenergic receptor (P08588 whole entry): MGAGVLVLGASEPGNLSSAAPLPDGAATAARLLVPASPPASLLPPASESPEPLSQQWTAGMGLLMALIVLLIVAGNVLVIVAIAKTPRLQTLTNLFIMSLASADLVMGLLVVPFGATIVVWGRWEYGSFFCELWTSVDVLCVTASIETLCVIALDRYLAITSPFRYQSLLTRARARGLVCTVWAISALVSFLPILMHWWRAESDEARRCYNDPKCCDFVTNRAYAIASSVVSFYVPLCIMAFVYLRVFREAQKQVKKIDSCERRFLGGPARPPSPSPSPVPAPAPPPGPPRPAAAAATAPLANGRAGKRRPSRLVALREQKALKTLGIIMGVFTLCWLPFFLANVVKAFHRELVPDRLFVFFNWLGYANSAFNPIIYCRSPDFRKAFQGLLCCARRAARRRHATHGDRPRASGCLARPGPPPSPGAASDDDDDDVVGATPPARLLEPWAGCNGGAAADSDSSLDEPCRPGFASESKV

[7] = molecular target: Adenosine receptor A2a (Homo sapiens, UniProt P29274)
Sequence of Adenosine receptor A2a (P29274 whole entry): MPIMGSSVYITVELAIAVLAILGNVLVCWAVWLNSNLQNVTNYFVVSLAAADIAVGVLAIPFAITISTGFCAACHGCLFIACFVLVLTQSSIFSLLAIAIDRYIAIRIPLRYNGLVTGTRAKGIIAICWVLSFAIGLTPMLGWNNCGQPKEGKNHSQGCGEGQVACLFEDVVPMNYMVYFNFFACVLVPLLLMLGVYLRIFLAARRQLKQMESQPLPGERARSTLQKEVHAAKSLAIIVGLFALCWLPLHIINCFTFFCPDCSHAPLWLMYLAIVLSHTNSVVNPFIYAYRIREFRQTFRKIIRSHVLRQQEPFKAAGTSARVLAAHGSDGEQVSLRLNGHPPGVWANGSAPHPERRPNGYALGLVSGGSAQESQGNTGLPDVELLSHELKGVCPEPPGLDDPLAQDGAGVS

[8] = molecular target: T3, Adenosine receptor A3 (Homo sapiens, UniProt P0DMS8)
T3 sequence (P0DMS8 whole entry): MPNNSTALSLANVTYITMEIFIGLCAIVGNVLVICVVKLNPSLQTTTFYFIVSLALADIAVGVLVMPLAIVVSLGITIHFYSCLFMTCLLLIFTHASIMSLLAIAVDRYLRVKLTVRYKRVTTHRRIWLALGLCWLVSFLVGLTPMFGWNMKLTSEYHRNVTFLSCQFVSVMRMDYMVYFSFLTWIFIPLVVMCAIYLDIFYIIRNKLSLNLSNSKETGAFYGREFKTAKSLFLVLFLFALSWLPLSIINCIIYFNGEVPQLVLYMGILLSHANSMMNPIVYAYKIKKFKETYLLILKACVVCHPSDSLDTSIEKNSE

[9] = molecular target: Mu-type opioid receptor (Homo sapiens, UniProt P35372); assay: biochemical; type: functional
Sequence of Mu-type opioid receptor (P35372 whole entry): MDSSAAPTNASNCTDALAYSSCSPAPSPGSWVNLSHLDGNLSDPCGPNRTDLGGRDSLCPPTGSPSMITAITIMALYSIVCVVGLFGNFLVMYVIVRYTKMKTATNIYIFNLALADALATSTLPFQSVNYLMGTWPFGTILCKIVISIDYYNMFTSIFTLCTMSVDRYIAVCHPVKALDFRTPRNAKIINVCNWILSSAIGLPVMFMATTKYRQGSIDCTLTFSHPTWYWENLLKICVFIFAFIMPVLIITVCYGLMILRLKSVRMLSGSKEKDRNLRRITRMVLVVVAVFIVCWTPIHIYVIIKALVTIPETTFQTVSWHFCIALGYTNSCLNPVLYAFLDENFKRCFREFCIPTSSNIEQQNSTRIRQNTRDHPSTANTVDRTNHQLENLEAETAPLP

[10] = molecular target: T4, 5-hydroxytryptamine receptor 1A (Homo sapiens, UniProt P08908); type: functional, cell-based
T4 sequence (P08908 whole entry): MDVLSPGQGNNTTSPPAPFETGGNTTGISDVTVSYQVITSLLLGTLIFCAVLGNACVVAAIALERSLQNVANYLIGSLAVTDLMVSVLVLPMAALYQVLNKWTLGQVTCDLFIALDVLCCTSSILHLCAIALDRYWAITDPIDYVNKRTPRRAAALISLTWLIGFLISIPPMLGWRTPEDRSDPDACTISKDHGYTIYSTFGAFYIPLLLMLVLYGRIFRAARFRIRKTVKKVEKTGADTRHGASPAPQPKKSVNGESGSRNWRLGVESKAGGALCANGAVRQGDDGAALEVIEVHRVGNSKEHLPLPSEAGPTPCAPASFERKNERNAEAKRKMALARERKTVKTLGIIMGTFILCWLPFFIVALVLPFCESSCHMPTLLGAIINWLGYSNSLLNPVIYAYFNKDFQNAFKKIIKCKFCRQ

[11] = molecular target: Sodium-dependent noradrenaline transporter (Homo sapiens, UniProt P23975)
Sequence of Sodium-dependent noradrenaline transporter (P23975 whole entry): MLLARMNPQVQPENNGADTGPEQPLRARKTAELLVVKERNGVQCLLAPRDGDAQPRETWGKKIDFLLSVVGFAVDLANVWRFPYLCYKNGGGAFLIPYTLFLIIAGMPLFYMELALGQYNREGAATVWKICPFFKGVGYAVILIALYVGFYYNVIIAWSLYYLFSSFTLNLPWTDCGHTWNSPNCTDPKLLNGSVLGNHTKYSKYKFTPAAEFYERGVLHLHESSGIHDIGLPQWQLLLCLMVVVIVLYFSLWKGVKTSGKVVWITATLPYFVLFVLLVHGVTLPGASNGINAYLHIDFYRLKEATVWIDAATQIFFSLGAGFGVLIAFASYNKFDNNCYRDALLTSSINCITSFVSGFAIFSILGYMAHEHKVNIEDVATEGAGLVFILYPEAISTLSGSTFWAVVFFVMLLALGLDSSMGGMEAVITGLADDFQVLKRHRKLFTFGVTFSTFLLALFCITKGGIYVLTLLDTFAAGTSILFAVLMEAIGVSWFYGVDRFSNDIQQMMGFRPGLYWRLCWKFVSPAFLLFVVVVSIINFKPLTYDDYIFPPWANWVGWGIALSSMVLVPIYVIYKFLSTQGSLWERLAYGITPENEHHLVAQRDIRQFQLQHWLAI

[12] = molecular target: T5, Cholecystokinin receptor type A (Homo sapiens, UniProt P32238)
T5 sequence (P32238 whole entry): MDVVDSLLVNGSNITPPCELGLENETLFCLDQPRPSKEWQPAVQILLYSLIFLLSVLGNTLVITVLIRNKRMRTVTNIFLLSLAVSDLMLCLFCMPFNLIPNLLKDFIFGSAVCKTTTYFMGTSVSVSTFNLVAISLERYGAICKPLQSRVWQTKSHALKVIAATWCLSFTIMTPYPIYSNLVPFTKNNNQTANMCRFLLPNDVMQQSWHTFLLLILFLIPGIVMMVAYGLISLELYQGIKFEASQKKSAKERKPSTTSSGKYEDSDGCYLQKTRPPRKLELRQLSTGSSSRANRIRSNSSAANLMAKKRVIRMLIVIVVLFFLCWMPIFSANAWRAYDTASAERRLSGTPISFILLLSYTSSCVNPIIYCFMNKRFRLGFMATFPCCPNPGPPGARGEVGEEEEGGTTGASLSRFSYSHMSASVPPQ

[13] = molecular target: Sodium-dependent serotonin transporter (Homo sapiens, UniProt P31645)
Sequence of Sodium-dependent serotonin transporter (P31645 whole entry): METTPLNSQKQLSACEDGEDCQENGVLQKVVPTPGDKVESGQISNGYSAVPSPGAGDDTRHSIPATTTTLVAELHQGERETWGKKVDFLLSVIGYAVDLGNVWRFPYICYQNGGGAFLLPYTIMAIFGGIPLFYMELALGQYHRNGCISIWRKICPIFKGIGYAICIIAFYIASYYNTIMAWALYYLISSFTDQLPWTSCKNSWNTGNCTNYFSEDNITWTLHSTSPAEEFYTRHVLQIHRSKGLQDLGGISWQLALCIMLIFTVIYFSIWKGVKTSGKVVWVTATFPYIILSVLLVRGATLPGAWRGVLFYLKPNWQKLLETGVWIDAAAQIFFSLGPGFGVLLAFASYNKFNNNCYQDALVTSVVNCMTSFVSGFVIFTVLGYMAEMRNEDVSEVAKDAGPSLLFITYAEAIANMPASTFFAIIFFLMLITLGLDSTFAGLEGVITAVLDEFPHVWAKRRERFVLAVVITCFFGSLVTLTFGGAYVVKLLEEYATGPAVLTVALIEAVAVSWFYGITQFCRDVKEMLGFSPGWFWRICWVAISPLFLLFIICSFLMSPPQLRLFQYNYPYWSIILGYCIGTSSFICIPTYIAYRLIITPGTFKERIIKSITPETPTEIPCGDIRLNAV

[14] = molecular target: 3',5'-cyclic-AMP phosphodiesterase 4D (Homo sapiens, UniProt Q08499); type: functional
Sequence of 3',5'-cyclic-AMP phosphodiesterase 4D (Q08499 whole entry): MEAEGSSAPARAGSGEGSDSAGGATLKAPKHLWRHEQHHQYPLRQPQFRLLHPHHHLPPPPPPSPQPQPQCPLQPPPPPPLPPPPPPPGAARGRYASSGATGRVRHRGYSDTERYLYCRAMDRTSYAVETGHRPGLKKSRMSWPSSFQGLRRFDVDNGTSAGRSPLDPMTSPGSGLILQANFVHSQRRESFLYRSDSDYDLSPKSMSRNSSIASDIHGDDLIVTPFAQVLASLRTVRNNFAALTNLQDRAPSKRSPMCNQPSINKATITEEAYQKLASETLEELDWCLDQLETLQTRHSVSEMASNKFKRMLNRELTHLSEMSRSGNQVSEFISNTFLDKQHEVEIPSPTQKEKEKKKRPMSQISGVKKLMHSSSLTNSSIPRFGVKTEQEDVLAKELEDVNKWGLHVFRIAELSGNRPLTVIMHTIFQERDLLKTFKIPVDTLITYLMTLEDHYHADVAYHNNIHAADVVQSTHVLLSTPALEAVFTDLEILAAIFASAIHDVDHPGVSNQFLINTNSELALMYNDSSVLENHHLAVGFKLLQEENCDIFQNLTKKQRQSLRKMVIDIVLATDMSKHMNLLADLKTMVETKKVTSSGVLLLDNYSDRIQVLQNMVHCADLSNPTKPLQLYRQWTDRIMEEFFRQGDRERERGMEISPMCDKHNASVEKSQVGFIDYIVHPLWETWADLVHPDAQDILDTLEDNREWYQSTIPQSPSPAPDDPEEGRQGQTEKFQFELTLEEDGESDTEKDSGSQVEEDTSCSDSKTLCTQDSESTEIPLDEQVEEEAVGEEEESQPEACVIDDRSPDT

[15] = molecular target: Growth hormone secretagogue receptor type 1 (Homo sapiens, UniProt Q92847)
Sequence of Growth hormone secretagogue receptor type 1 (Q92847 whole entry): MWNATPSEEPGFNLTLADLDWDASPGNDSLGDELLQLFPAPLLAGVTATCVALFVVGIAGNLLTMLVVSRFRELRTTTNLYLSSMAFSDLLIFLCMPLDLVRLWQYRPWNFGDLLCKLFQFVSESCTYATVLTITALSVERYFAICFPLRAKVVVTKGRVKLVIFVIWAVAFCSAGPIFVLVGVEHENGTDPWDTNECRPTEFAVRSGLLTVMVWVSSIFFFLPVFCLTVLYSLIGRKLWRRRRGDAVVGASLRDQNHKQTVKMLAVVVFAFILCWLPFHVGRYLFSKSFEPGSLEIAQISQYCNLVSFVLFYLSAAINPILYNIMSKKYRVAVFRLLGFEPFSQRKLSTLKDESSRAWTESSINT
Further: assay procedure not described here.

Structure (SMILES): CO[C@@]1(NC(=O)Cc2cccs2)C(=O)N2C(C(=O)O)=C(COC(N)=O)CS[C@@H]21 [CEFOXITIN]
- AC50 [1]: > 30 µM
- AC50 [2]: > 30 µM
- AC50 [3]: > 30 µM
- AC50 [4]: > 30 µM
- AC50 [5]: > 30 µM
- AC50 [6]: > 30 µM
- AC50 [7]: > 30 µM
- AC50 [8]: > 30 µM
- AC50 [9]: > 30 µM
- AC50 [10]: > 30 µM
- AC50 [11]: > 30 µM
- AC50 [12]: > 30 µM
- AC50 [13]: > 30 µM
- AC50 [14]: > 30 µM
- AC50 [15]: > 30 µM

Structure (SMILES): CCN(CC)CCOC(=O)c1ccc(N)cc1Cl [CHLOROPROCAINE]
- AC50 [1]: > 30 µM
- AC50 [2]: > 30 µM
- AC50 [3]: 11 µM
- AC50 [4]: > 30 µM
- AC50 [5]: > 30 µM
- AC50 [6]: > 30 µM
- AC50 [7]: > 30 µM
- AC50 [8]: > 30 µM
- AC50 [9]: > 30 µM
- AC50 [10]: > 30 µM
- AC50 [11]: > 30 µM
- AC50 [12]: > 30 µM
- AC50 [13]: > 30 µM
- AC50 [14]: > 30 µM
- AC50 [15]: > 30 µM

Structure (SMILES): COCCOC(=O)C1=C(C)NC(C)=C(C(=O)OC/C=C/c2ccccc2)C1c1cccc([N+](=O)[O-])c1 (stereo not given) [CILNIDIPINE]
- AC50 [1]: > 30 µM
- AC50 [2]: > 30 µM
- AC50 [3]: > 30 µM
- AC50 [4]: > 30 µM
- AC50 [5]: > 30 µM
- AC50 [6]: > 30 µM
- AC50 [7]: > 30 µM
- AC50 [8]: 4.8 µM
- AC50 [9]: > 30 µM
- AC50 [10]: > 30 µM
- AC50 [11]: > 30 µM
- AC50 [12]: > 30 µM
- AC50 [13]: > 30 µM
- AC50 [14]: 8.2 µM
- AC50 [15]: > 30 µM

Structure (SMILES): CCC(C)(Oc1ccc(C2(c3ccc(OC(C)(CC)C(=O)O)cc3)CCCCC2)cc1)C(=O)O (stereo not given) [CLINOFIBRATE]
- AC50 [1]: > 30 µM
- AC50 [2]: > 30 µM
- AC50 [3]: > 30 µM
- AC50 [4]: > 30 µM
- AC50 [5]: > 30 µM
- AC50 [6]: > 30 µM
- AC50 [7]: > 30 µM
- AC50 [8]: 20 µM
- AC50 [9]: > 30 µM
- AC50 [10]: > 30 µM
- AC50 [11]: > 30 µM
- AC50 [12]: > 30 µM
- AC50 [13]: > 30 µM
- AC50 [14]: > 30 µM
- AC50 [15]: > 30 µM

Structure (SMILES): CCCCC[C@H](O)/C=C/[C@H]1[C@H](O)CC(=O)[C@@H]1C/C=C\CCCC(=O)O [DINOPROSTONE]
- AC50 [1]: > 30 µM
- AC50 [2]: > 30 µM
- AC50 [3]: > 30 µM
- AC50 [4]: > 30 µM
- AC50 [5]: > 30 µM
- AC50 [6]: > 30 µM
- AC50 [7]: > 30 µM
- AC50 [8]: > 30 µM
- AC50 [9]: > 30 µM
- AC50 [10]: > 30 µM
- AC50 [11]: > 30 µM
- AC50 [12]: > 30 µM
- AC50 [13]: > 30 µM
- AC50 [14]: 11 µM
- AC50 [15]: > 30 µM

Structure (SMILES): CC(C)c1cc2c(cc1S(=O)(=O)O)[C@@]1(C)CCC[C@@](C)(C(=O)O)[C@@H]1CC2 [ECABET]
- AC50 [1]: > 30 µM
- AC50 [2]: > 30 µM
- AC50 [3]: > 30 µM
- AC50 [4]: > 30 µM
- AC50 [5]: > 30 µM
- AC50 [6]: > 30 µM
- AC50 [7]: > 30 µM
- AC50 [8]: > 30 µM
- AC50 [9]: > 30 µM
- AC50 [10]: > 30 µM
- AC50 [11]: > 30 µM
- AC50 [12]: > 30 µM
- AC50 [13]: > 30 µM
- AC50 [14]: > 30 µM
- AC50 [15]: > 30 µM
